Measured values published in ChEMBL document CHEMBL1150805, “New cytotoxic isomalabaricane triterpenes from the sponge Jaspis species” (J Nat Prod, 2001).

Assays:
[1] = test system: MOLT-4; assay: Antiproliferative activity against human MOLT4 cells; type: functional, cell-based
[2] = test system: Malme-3M; assay: Antiproliferative activity against human MALME-3M cells; type: functional, cell-based

Compound	IC50 [1]	IC50 [2]
CC(=O)O[C@@H](CC=C(C)C)/C(C)=C/C=C/C(C)=C1\C(=O)C[C@H]2[C@@]3(C)CC[C@@H](O)[C@](C)(CO)[C@@H]3CC[C@]12C (mixture of isomers)	4.11 µg/mL	0.23 µg/mL
CC(=O)O[C@@H](CC=C(C)C)/C(C)=C/C=C/C(C)=C1\C(=O)C[C@H]2[C@@]3(C)CC[C@@H](OC(C)=O)[C@](C)(CO)[C@@H]3CC[C@]12C (mixture of isomers)	16.6 µg/mL	1.2 µg/mL
CC(=O)O[C@@H](CC=C(C)C)/C(C)=C/C=C/C(C)=C1\C(=O)C[C@H]2[C@@]3(C)CC[C@H](OC(C)=O)[C@](C)(CO)[C@@H]3CC[C@]12C (mixture of isomers)	19.5 µg/mL	2.27 µg/mL
CC(=O)O[C@H]1CC[C@@]2(C)[C@@H](CC[C@]3(C)/C(=C(C)/C=C/C=C(\C)[C@@H](O)CC=C(C)C)C(=O)C[C@@H]23)[C@@]1(C)CO (mixture of isomers)	1.62 µg/mL	0.11 µg/mL
